Test systems include A498; COLO 205; KM12; MCF7; MDA-MB-231; MDA-MB-435; MOLT-4; NCI-H460; OVCAR-5; RPMI-8226; SF-295; SF-539; SK-OV-3; SNB-19; SR; UACC-257; K562; SNB-75; OVCAR-8; HOP-92.
Common to all, as to assay: NCI tumour cell line growth inhibition, 48 h

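Growth conditions: 96-well plates. Treatment: test compound, 48 hours, 5 concentrations. Analysis: linear interpolation between bracketing concentrations; unreached endpoints set to highest concentration. At the GI50, growth is halved.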 Activity calls are given as the source filed them. Cut-off read from the data, not from the text of the source: active = GI50 up to about 1.1 µM and inactive = higher.

For `COc1cc(/C=C/c2ccnc3ccccc23)cc(OC)c1OC`, the GI50 in the test on A498 was 4 µM (inactive); in the test with COLO 205, 1.88 µM (inactive); in the test on KM12 it was 3.23 µM (inactive); with MCF7, 5.22 µM (inactive); in the test on MDA-MB-231, 2.21 µM (inactive); in the test with MDA-MB-435, 0.413 µM (active). Moreover, the GI50 with MOLT-4 is 2.92 µM (inactive); with NCI-H460, 3.77 µM (inactive); in the test on OVCAR-5, 7.8 µM (inactive); with RPMI-8226, 3.72 µM (inactive); in the test on SF-295, 8.47 µM (inactive); in the test with SF-539, 3.78 µM (inactive). The GI50 was 4.19 µM (inactive) with SK-OV-3, 10.4 µM (inactive) in the test on SNB-19, 1.35 µM (inactive) with SR and 5.27 µM (inactive) with UACC-257.
Turning to `Cc1ccc2c(c1)NC(c1ccc(C(=O)O)cc1)c1cccn1-2` (stereo not given), the GI50 in the test with A498 is 22.9 µM (inactive); in the test on COLO 205, > 100 µM (inactive); in the test on K562 it was > 100 µM (inactive); in the test on KM12, 30.7 µM (inactive); with MCF7, 25.1 µM (inactive); in the test with MDA-MB-231, 37.2 µM (inactive). Further, the GI50 in the test on MDA-MB-435 was 5.16 µM (inactive); with MOLT-4 it was 64.1 µM (inactive); with NCI-H460, 66.5 µM (inactive); with OVCAR-5, > 100 µM (inactive); in the test on RPMI-8226, > 100 µM (inactive); with SF-295, 37.8 µM (inactive). The GI50 is > 100 µM (inactive) with SF-539; 22.4 µM (inactive) in the test on SK-OV-3; 22.4 µM (inactive) with SNB-19; 18.7 µM (inactive) with SNB-75; > 100 µM (inactive) in the test on SR; 80.4 µM (inactive) in the test on UACC-257.
As to `C=CCCCC1(C)CCCCNC1=O` (stereo not given), the GI50 with A498, in the test on COLO 205, in the test with K562, in the test on KM12, in the test on MCF7 and with MDA-MB-231 was > 10 µM (inactive) each time. The GI50 in the test on MDA-MB-435, in the test on MOLT-4, in the test on NCI-H460, in the test on OVCAR-5, in the test with OVCAR-8 and with RPMI-8226 was > 10 µM (inactive) throughout. The GI50 in the test on SF-295, in the test with SF-539, in the test on SK-OV-3, in the test on SNB-19, with SNB-75 and in the test on SR was > 10 µM (inactive) throughout. Moreover, the GI50 in the test on UACC-257 was > 10 µM (inactive).
For `Oc1ccccc1CNCc1nc2ccccc2[nH]1`, the GI50 in the test with A498 was > 100 µM (inactive); with COLO 205, 29.7 µM (inactive); in the test on HOP-92 it was 73.5 µM (inactive); in the test on K562, 51.2 µM (inactive); in the test on KM12 it was 89.5 µM (inactive); with MCF7, > 100 µM (inactive). In addition, the GI50 in the test on MDA-MB-231 is 71.9 µM (inactive); with MDA-MB-435, > 100 µM (inactive); in the test on MOLT-4, 65.5 µM (inactive); in the test with OVCAR-5, > 100 µM (inactive); in the test with OVCAR-8, 29 µM (inactive); in the test with RPMI-8226, 17.7 µM (inactive). Besides, the GI50 in the test on SF-295 is 45.8 µM (inactive); with SF-539 it was > 100 µM (inactive); in the test with SNB-19, > 100 µM (inactive); with SNB-75 it was 57.4 µM (inactive); in the test with SR, 50 µM (inactive); in the test with UACC-257, > 100 µM (inactive).
Take `CN(C)CCNC(=O)c1cccc2c(NC(CCCNC(=N)N)C(=O)O)c3ccccc3nc12` (stereo not given): the GI50 with A498 is 19.8 µM (inactive); with COLO 205, 6.22 µM (inactive); in the test on HOP-92 it was 3.85 µM (inactive); with K562 it was 5.68 µM (inactive); with KM12, 7.26 µM (inactive); with MCF7, 5.27 µM (inactive). The GI50 in the test with MDA-MB-231 is 9.27 µM (inactive); in the test with MDA-MB-435 it was 10.1 µM (inactive); in the test on MOLT-4, 3.89 µM (inactive); in the test on OVCAR-5 it was 9.95 µM (inactive); in the test with OVCAR-8 it was 4.13 µM (inactive); in the test with RPMI-8226 it was 6.59 µM (inactive). The GI50 is 7.57 µM (inactive) with SF-295; 12.6 µM (inactive) in the test on SK-OV-3; 3.94 µM (inactive) in the test with SNB-19; 8.83 µM (inactive) with SNB-75; 1 µM (active) with SR.
For the compound `Oc1nc(-c2cccc(F)c2)nc2ccccc12`, the GI50 was 30.3 µM (inactive) in the test with A498; > 100 µM (inactive) with COLO 205; 30.7 µM (inactive) in the test with HOP-92; 0.461 µM (active) with K562; > 79.6 µM (inactive) with KM12; 87.1 µM (inactive) in the test on MCF7. In addition, the GI50 in the test with MDA-MB-231 was > 42.2 µM (inactive); with MDA-MB-435 it was > 86.1 µM (inactive); with MOLT-4, > 100 µM (inactive); in the test with NCI-H460, 36.1 µM (inactive); in the test with OVCAR-5, > 100 µM (inactive); in the test with OVCAR-8, 29.8 µM (inactive). Also, the GI50 in the test with SF-295 is 39.4 µM (inactive); with SK-OV-3, 28.7 µM (inactive); with SNB-19, 19.9 µM (inactive); in the test on SNB-75, 16.6 µM (inactive); in the test on SR, > 77.3 µM (inactive); in the test with UACC-257 it was > 91.6 µM (inactive).
For the compound `CC(=O)c1cc(C)n2c1CS[C@@H]2c1ccccc1`, the GI50 is > 100 µM (inactive) with A498; 12.2 µM (inactive) in the test on COLO 205; 20.2 µM (inactive) in the test with HOP-92; 31.6 µM (inactive) in the test with K562; 54.6 µM (inactive) in the test with KM12; 35.9 µM (inactive) with MCF7. Also, the GI50 with MDA-MB-231 is 43.3 µM (inactive); in the test with MDA-MB-435 it was 27.3 µM (inactive); in the test on MOLT-4 it was 25.2 µM (inactive); in the test with OVCAR-5, > 100 µM (inactive); in the test on OVCAR-8, 70.8 µM (inactive); in the test on RPMI-8226, 7.85 µM (inactive). Further, the GI50 with SF-295 is 65.9 µM (inactive); with SK-OV-3 it was > 100 µM (inactive); in the test with SNB-19, > 100 µM (inactive); in the test on SNB-75 it was 65.8 µM (inactive); in the test with SR, 27 µM (inactive); with UACC-257 it was > 100 µM (inactive).
With `O=C1c2scc(-c3ccc(F)cc3)c2-n2cccc21`, the GI50 in the test with A498 was 1.47 µM (inactive); in the test with COLO 205 it was 44.9 µM (inactive); in the test with KM12, 43 µM (inactive); with MCF7 it was 21.2 µM (inactive); with MDA-MB-231, 24.7 µM (inactive); in the test on MDA-MB-435, 11.1 µM (inactive). The GI50 in the test with MOLT-4 was 27.9 µM (inactive); in the test on NCI-H460, 28 µM (inactive); with OVCAR-5, > 100 µM (inactive); in the test on OVCAR-8, 57.7 µM (inactive); with RPMI-8226, 24.5 µM (inactive); with SF-295, 26.2 µM (inactive). The GI50 in the test on SK-OV-3 was 40.6 µM (inactive); in the test on SNB-19, 19.8 µM (inactive); with SNB-75 it was 6.4 µM (inactive); in the test on SR, 11 µM (inactive); in the test with UACC-257, 71 µM (inactive).
In the case of `COC(=O)C1=C(OC(=O)c2ccccc2)C(C(=O)OC)[C@@]2(O)[C@@H](C(=O)OC)[C@H](C)C[C@@H]1[C@@H]2C(=O)OC` (stereo not given in full), the GI50 with A498 is 26.4 µM (inactive); in the test with COLO 205, 17.6 µM (inactive); with KM12, 28.4 µM (inactive); in the test with MCF7, 29 µM (inactive); in the test on MDA-MB-231, 37.7 µM (inactive); in the test on MDA-MB-435, 25.3 µM (inactive). Moreover, the GI50 is 46.1 µM (inactive) in the test on MOLT-4; 25.3 µM (inactive) with NCI-H460; 47.2 µM (inactive) in the test on OVCAR-5; 26.4 µM (inactive) in the test on OVCAR-8; 19 µM (inactive) in the test with RPMI-8226; 35.1 µM (inactive) in the test with SF-295. Moreover, the GI50 was 14.5 µM (inactive) in the test on SF-539; 29.5 µM (inactive) in the test on SK-OV-3; 74.6 µM (inactive) in the test with SNB-19; 22.9 µM (inactive) with SNB-75; 21.5 µM (inactive) in the test on SR; 33.3 µM (inactive) in the test with UACC-257.
With `CCn1c(-c2ccc(/N=N/Nc3ccc(-c4n[nH]c(=S)n4CC)cc3)cc2)n[nH]c1=S`, the GI50 with A498 was 3.3 µM (inactive); in the test with COLO 205 it was 2.69 µM (inactive); in the test on HOP-92, 2.79 µM (inactive); with K562 it was 2.67 µM (inactive); in the test on KM12 it was 2.44 µM (inactive); in the test on MCF7 it was 3.33 µM (inactive). Also, the GI50 with MDA-MB-231 is 4.2 µM (inactive); in the test with MDA-MB-435, 2.45 µM (inactive); in the test on MOLT-4 it was 2.17 µM (inactive); in the test with OVCAR-8 it was 2.28 µM (inactive); in the test on RPMI-8226 it was 1.92 µM (inactive); with SF-295 it was 2.46 µM (inactive). The GI50 was 3.33 µM (inactive) in the test on SK-OV-3; 2.55 µM (inactive) in the test with SNB-19; 2.79 µM (inactive) in the test on SNB-75; 3.47 µM (inactive) with SR; 3.15 µM (inactive) in the test with UACC-257.
In the case of `CC1(C)C2CCC(=O)C1C(OCc1ccccc1)C2` (stereo not given), the GI50 in the test on A498 was > 100 µM (inactive); with COLO 205 it was > 100 µM (inactive); in the test with K562 it was 96.4 µM (inactive); in the test on KM12, > 100 µM (inactive); in the test on MCF7 it was > 100 µM (inactive); in the test on MDA-MB-231, > 100 µM (inactive). Moreover, the GI50 in the test with MDA-MB-435, in the test on MOLT-4, in the test with NCI-H460, in the test with OVCAR-5, in the test with OVCAR-8 and in the test with RPMI-8226 was > 100 µM (inactive) in each case. Moreover, the GI50 in the test on SF-295 is > 100 µM (inactive); in the test with SF-539, > 100 µM (inactive); in the test with SK-OV-3, > 100 µM (inactive); in the test on SNB-19 it was > 100 µM (inactive); in the test on SNB-75, > 100 µM (inactive); in the test on SR it was 29.8 µM (inactive). For the same compound, the GI50 with UACC-257 is 85.7 µM (inactive).
